Here are results for 30 compounds from ChEMBL document CHEMBL4138148, “Discovery of novel pyrrolo-pyridine/pyrimidine derivatives bearing pyridazinone moiety as c-Met kinase inhibitors” (Eur J Med Chem, 2017).

Common to all, as to assay: cells
One assay has as its system A549. The settings on record: Homo sapiens, A549, 72 h.
The subject of another assay is HepG2. The settings on record: Homo sapiens, HepG2, 72 h.
In a further assay the test system is MCF7. The conditions noted are these: Homo sapiens, MCF7, 72 h.
Another assay has as its system PC-3. The settings on record: Homo sapiens, PC-3, 72 h.

Description for A549: Cytotoxicity against human A549 cells assessed as reduction in cell viability after 72 hrs by MTT assay
Description for HepG2: Cytotoxicity against human HepG2 cells assessed as reduction in cell viability after 72 hrs by MTT assay
Description for MCF7: Cytotoxicity against human MCF7 cells assessed as reduction in cell viability after 72 hrs by MTT assay
Description for PC-3: Cytotoxicity against human PC3 cells assessed as reduction in cell viability after 72 hrs by MTT assay

In the case of `Cn1ccc2c(Oc3ccc(NC(=O)c4nn(-c5ccc(Cl)c(C(F)(F)F)c5)ccc4=O)cc3F)ccnc21`, the IC50 in the assay on A549 was found to be 17.7 µM; with HepG2, 13.5 µM; with MCF7, 18.4 µM; in the assay with PC-3 it was 20.9 µM.
For `Cc1cc(=O)n(-c2ccccc2C(F)(F)F)nc1C(=O)Nc1ccc(Oc2ncnc3c2ccn3C)cc1` the same measures were 5.86 µM, 27.2 µM, 7.84 µM and 19.1 µM.
Turning to `Cc1cc(=O)n(-c2cccc(C(F)(F)F)c2)nc1C(=O)Nc1ccc(Oc2ncnc3[nH]ccc23)cc1`, the IC50 in the assay on A549 stood at 7.57 µM; with HepG2, 9.47 µM; with MCF7, 4.56 µM; in the assay on PC-3 it was 3.46 µM.
The corresponding values for `Cc1ccc(-n2nc(C(=O)Nc3ccc(Oc4ncnc5[nH]ccc45)c(F)c3)c(C)cc2=O)cc1` are 18.5 µM, 18.8 µM, 18.9 µM and 20.4 µM.
As to `O=C(Nc1ccc(Oc2ccnc3[nH]ccc23)c(F)c1)c1nn(-c2ccc(Cl)c(F)c2)ccc1=O`, the IC50 in the assay on A549 is 10.3 µM; in the assay on HepG2, 9.61 µM; in the assay with MCF7 it was 11.6 µM; with PC-3 it was 13.6 µM.
Turning to `Cc1ccc(-n2nc(C(=O)Nc3ccc(Oc4ncnc5c4ccn5C)c(F)c3)c(C)cc2=O)cc1`, the IC50 is over 60 µM with A549, over 60 µM with HepG2, over 60 µM in the assay with MCF7 and 50.5 µM with PC-3.
Turning to `Cc1cc(=O)n(-c2cccc(C(F)(F)F)c2)nc1C(=O)Nc1ccc(Oc2ncnc3[nH]ccc23)c(F)c1`, the IC50 in the assay with A549 amounted to 35.1 µM; in the assay with HepG2, 26.3 µM; with MCF7 it was 11.8 µM; in the assay on PC-3, 15.6 µM.
The corresponding values for `O=C(Nc1ccc(Oc2ccnc3[nH]ccc23)cc1)c1nn(-c2ccc(Br)cc2F)ccc1=O` are 26.1 µM, 46.4 µM, 17.9 µM and 12.8 µM.
For the compound `O=C(Nc1ccc(Oc2ccnc3[nH]ccc23)c(F)c1)c1nn(-c2ccc(Br)cc2F)ccc1=O`, the IC50 in the assay on A549 is 55.7 µM; with HepG2 it was 56.5 µM; in the assay with MCF7, 23.5 µM; in the assay on PC-3 it was 8.8 µM.
Turning to `Cc1cc(=O)n(-c2ccccc2OC(F)(F)F)nc1C(=O)Nc1ccc(Oc2ncnc3[nH]ccc23)c(F)c1`, the IC50 with A549 was 16.2 µM; in the assay with HepG2, over 60 µM; in the assay on MCF7, 11.7 µM; with PC-3, over 60 µM.
As to `Cn1ccc2c(Oc3ccc(NC(=O)c4nn(-c5ccc(Cl)c(F)c5)ccc4=O)cc3)ccnc21`, the IC50 with A549 is over 60 µM; in the assay with HepG2 it was over 60 µM; with MCF7 it was 16.8 µM; with PC-3 it was 32.7 µM.
On to `Cc1ccc(-n2nc(C(=O)Nc3ccc(Oc4ncnc5c4ccn5C)cc3)c(C)cc2=O)cc1`, for which the IC50 in the assay on A549 is over 60 µM; with HepG2, 33.8 µM; in the assay with MCF7, 10.8 µM; in the assay with PC-3 it was over 60 µM.
`O=C(Nc1ccc(Oc2ccnc3[nH]ccc23)c(F)c1)c1nn(-c2ccc(Cl)c(C(F)(F)F)c2)ccc1=O`: the IC50 in the assay with A549 worked out at 13.4 µM; in the assay with HepG2 it was 11.9 µM; in the assay on MCF7 it was 11.6 µM; in the assay on PC-3, 5.5 µM.
For the compound `Cn1ccc2c(Oc3ccc(NC(=O)c4nn(-c5ccc(Cl)c(C(F)(F)F)c5)ccc4=O)cc3)ccnc21`, the IC50 was 11.4 µM with A549, 23.4 µM with HepG2, 15.2 µM in the assay on MCF7 and 10.3 µM in the assay on PC-3.
For `O=C(Nc1ccc(Oc2ccnc3[nH]ccc23)cc1)c1nn(-c2ccc(Cl)cc2)ccc1=O`, the IC50 in the assay with A549 was found to be 25.1 µM; in the assay on HepG2 it was 19.5 µM; in the assay on MCF7 it was 10.6 µM; in the assay with PC-3 it was 32.4 µM.
For the compound `Cn1ccc2c(Oc3ccc(NC(=O)c4nn(-c5ccc(Cl)cc5)ccc4=O)cc3)ccnc21`, the IC50 in the assay with A549, with HepG2, in the assay with MCF7 and in the assay on PC-3 was over 60 µM throughout.
On to `Cc1cc(=O)n(-c2cccc(F)c2)nc1C(=O)Nc1ccc(Oc2ncnc3c2ccn3C)c(F)c1`, for which the IC50 was over 60 µM with A549, over 60 µM with HepG2, over 60 µM with MCF7 and 8.99 µM in the assay with PC-3.
For the compound `O=C(Nc1ccc(Oc2ccnc3[nH]ccc23)cc1)c1nn(-c2ccc(Br)cc2)ccc1=O`, the IC50 in the assay on A549 stood at 6.24 µM; in the assay on HepG2, 4.28 µM; in the assay on MCF7, 7.89 µM; with PC-3 it was 8.04 µM.
`COc1ccc(-n2ccc(=O)c(C(=O)Nc3ccc(Oc4ccnc5[nH]ccc45)cc3)n2)cc1`: the IC50 is 53.1 µM in the assay with A549, 50.8 µM with HepG2, 21.6 µM in the assay on MCF7 and over 60 µM in the assay with PC-3.
The corresponding values for `Cc1cc(=O)n(-c2ccc(F)cc2)nc1C(=O)Nc1ccc(Oc2ncnc3[nH]ccc23)cc1` are over 60 µM, over 60 µM, 4.8 µM and over 60 µM.
For `Cn1ccc2c(Oc3ccc(NC(=O)c4nn(-c5ccc(Br)cc5)ccc4=O)cc3F)ccnc21` the same measures were over 60 µM, over 60 µM, 33.6 µM and over 60 µM.
Consider `Cc1cc(=O)n(-c2cccc(F)c2)nc1C(=O)Nc1ccc(Oc2ncnc3c2ccn3C)cc1`, for which the IC50 with A549 is 23.4 µM; with HepG2, over 60 µM; in the assay with MCF7, 30.8 µM; with PC-3, over 60 µM.
Take `Cc1cc(=O)n(-c2ccc(F)cc2)nc1C(=O)Nc1ccc(Oc2ncnc3[nH]ccc23)c(F)c1`: the IC50 amounted to 42.4 µM in the assay with A549, 12.8 µM in the assay with HepG2, 24.5 µM in the assay with MCF7 and 17.3 µM in the assay with PC-3.
The corresponding values for `Cc1cc(=O)n(-c2cccc(F)c2)nc1C(=O)Nc1ccc(Oc2ncnc3[nH]ccc23)cc1` are 34.8 µM, 3.18 µM, 9.67 µM and 14.6 µM.
For `Cn1ccc2c(Oc3ccc(NC(=O)c4nn(-c5ccc(Br)cc5F)ccc4=O)cc3F)ccnc21` the same measures were 26.8 µM, 23.9 µM, 14.1 µM and 16.3 µM.
`Cc1cc(=O)n(-c2ccccc2OC(F)(F)F)nc1C(=O)Nc1ccc(Oc2ncnc3c2ccn3C)cc1`: the IC50 is 25.2 µM in the assay on A549, over 60 µM in the assay with HepG2, 27 µM in the assay on MCF7 and 5.16 µM in the assay with PC-3.
Consider `Cc1cc(=O)n(-c2ccccc2C(F)(F)F)nc1C(=O)Nc1ccc(Oc2ncnc3c2ccn3C)c(F)c1`, for which the IC50 with A549 is 35.4 µM; with HepG2, over 60 µM; in the assay on MCF7 it was over 60 µM; in the assay with PC-3 it was 25.9 µM.
Regarding `COc1ccc(-n2ccc(=O)c(C(=O)Nc3ccc(Oc4ccnc5c4ccn5C)cc3)n2)cc1`, the IC50 in the assay with A549, in the assay with HepG2, with MCF7 and with PC-3 was over 60 µM in each case.
As to `O=C(Nc1ccc(Oc2ccnc3[nH]ccc23)c(F)c1)c1nn(-c2ccc(Cl)cc2)ccc1=O`, the IC50 in the assay on A549 was over 60 µM; in the assay with HepG2 it was over 60 µM; in the assay with MCF7, over 60 µM; in the assay on PC-3, 42.5 µM.
With `Cc1cc(=O)n(-c2cccc(F)c2)nc1C(=O)Nc1ccc(Oc2ncnc3[nH]ccc23)c(F)c1`, the IC50 in the assay on A549 was determined as 31.4 µM; with HepG2, 23.1 µM; with MCF7 it was 32 µM; in the assay with PC-3, 6.68 µM.
